From ChEMBL document CHEMBL4507269, “Data for DCP probe BAY-386” (2021)

Assays:
Mus musculus = species on record: Mus musculus; assay: Inhibition of Interleukin IL-1 at 10 µM in the Eurofins-Panlabs radioligand binding assay (Eurofins_assay_243520); design: ligand concentration 0.1 nM; conditions: Compound concentration 10.0 uM
[1] = biological target: Sigma non-opioid intracellular receptor 1 (Homo sapiens) (UniProt Q99720); assay: Sigma 1 Eurofins-Panlabs radioligand binding assay; design: ligand concentration 8 nM; conditions: Compound concentration 10.0 uM
Platelet [2] = assay: Inhibition of platelet aggregation (human plasma, TRAP-6) (IC50); assay type: cell-based
[3] = biological target: Acetylcholine receptor subunit alpha (Homo sapiens) (UniProt P02708); assay: Inhibition of Nicotinic Acetylcholine […], Bungarotoxin at 10 µM in the Eurofins-Panlabs radioligand binding assay (Eurofins_assay_258700); conditions: Compound concentration 10.0 uM
[4] = biological target: Sodium-dependent dopamine transporter (Homo sapiens) (UniProt Q01959); conditions: Compound concentration 10.0 uM
[5] = biological target: Sodium-dependent serotonin transporter (Homo sapiens) (UniProt P31645); conditions: Compound concentration 10.0 uM
[6] = biological target: Neuropeptide Y receptor type 1 (Homo sapiens) (UniProt P25929); assay: Inhibition of Neuropeptide Y Y1 at 10 µM in the Eurofins-Panlabs radioligand binding assay (Eurofins_assay_257010); conditions: Compound concentration 10.0 uM
[7] = biological target: Sodium-dependent noradrenaline transporter (Homo sapiens) (UniProt P23975); conditions: Compound concentration 10.0 uM
[8] = biological target: T1, Adenosine receptor A3 (Homo sapiens) (UniProt P0DMS8); conditions: Compound concentration 10.0 uM
T1 sequence (whole entry): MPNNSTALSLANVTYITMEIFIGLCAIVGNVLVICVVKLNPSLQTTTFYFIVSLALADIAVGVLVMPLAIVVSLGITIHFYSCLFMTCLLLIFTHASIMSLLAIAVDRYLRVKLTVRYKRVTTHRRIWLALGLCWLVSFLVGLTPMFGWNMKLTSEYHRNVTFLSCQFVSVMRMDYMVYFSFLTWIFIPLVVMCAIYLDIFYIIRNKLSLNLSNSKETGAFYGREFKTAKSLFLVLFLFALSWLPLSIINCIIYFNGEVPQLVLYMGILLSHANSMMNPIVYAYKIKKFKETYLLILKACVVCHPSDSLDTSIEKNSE

[9] = biological target: Sigma non-opioid intracellular receptor 1 (Homo sapiens) (UniProt Q99720); assay: Inhibition of Sigma 1 at 10 µM in the Eurofins-Panlabs radioligand binding assay (Eurofins_assay_278110); design: ligand concentration 8 nM; conditions: Compound concentration 10.0 uM
[10] = biological target: Histamine H2 receptor (Homo sapiens) (UniProt P25021); conditions: Compound concentration 10.0 uM
[11] = biological target: voltage-gated sodium channel, site 2 (Rattus norvegicus, UniProt F1LQQ7+O08562+O88420+O88457+P04774+P04775+P08104+P15389+P15390+Q62968); assay: Inhibition of Sodium Channel, Site 2 at 10 µM in the Eurofins-Panlabs radioligand binding assay (Eurofins_assay_279510); assay type: protein assay; design: ligand concentration 5 nM, non-specific ligand with concentration 100 µM Veratridine, incubation time 60 min, incubation temperature 37 °C; conditions: male, Wistar, rat whole brain (except cerebellum) membranes, probe [3H] Batrachotoxinin, compound concentration 10 uM
Homo sapiens = species on record: Homo sapiens; assay: Inhibition of Nicotinic Acetylcholine at compound concentration of 10.0 uM in the Eurofins-Panlabs radioligand binding assay (Eurofins_assay_258590); assay type: protein-complex assay; conditions: Compound concentration 10.0 uM
[12] = biological target: 5-hydroxytryptamine receptor 5A (Homo sapiens) (UniProt P47898); conditions: Compound concentration 10.0 uM
[13] = biological target: Neuropeptide Y receptor type 2 (Homo sapiens) (UniProt P49146); assay: Inhibition of Neuropeptide Y Y2 at 10 µM in the Eurofins-Panlabs radioligand binding assay (Eurofins_assay_257110); conditions: Compound concentration 10.0 uM
[14] = biological target: Kappa-type opioid receptor (Homo sapiens) (UniProt P41145); assay: kappa (KOP) (h) Eurofins-Cerep Cellular and Nuclear Receptor Functional Assays; conditions: Compound concentration 10.0 uM
[15] = biological target: Beta-3 adrenergic receptor (Homo sapiens) (UniProt P13945); conditions: Compound concentration 10.0 uM
[16] = biological target: Beta-1 adrenergic receptor (Homo sapiens) (UniProt P08588); conditions: Compound concentration 10.0 uM
Platelet [17] = assay: Inhibition of platelet aggregation (human plasma, TRAP-6); assay type: cell-based

Sigma non-opioid intracellular receptor 1 (Homo sapiens), sequence (Q99720 whole entry): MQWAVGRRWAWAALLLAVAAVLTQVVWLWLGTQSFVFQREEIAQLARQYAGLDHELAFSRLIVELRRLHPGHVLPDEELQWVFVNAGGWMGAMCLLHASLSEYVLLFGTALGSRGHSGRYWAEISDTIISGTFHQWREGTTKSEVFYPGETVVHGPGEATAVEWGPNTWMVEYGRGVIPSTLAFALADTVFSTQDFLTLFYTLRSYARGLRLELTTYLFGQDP
Kappa-type opioid receptor (Homo sapiens), sequence (P41145 whole entry): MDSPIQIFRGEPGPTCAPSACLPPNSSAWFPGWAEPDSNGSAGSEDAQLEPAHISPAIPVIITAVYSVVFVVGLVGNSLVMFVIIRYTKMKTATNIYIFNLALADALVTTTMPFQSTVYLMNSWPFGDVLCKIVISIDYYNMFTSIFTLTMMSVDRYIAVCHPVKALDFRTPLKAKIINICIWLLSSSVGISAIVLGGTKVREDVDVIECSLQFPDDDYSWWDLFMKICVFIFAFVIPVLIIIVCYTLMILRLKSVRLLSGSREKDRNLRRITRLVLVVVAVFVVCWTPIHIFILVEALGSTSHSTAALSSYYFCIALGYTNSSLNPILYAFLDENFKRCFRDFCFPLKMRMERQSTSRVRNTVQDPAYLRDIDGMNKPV
5-hydroxytryptamine receptor 5A (Homo sapiens), sequence (P47898 whole entry): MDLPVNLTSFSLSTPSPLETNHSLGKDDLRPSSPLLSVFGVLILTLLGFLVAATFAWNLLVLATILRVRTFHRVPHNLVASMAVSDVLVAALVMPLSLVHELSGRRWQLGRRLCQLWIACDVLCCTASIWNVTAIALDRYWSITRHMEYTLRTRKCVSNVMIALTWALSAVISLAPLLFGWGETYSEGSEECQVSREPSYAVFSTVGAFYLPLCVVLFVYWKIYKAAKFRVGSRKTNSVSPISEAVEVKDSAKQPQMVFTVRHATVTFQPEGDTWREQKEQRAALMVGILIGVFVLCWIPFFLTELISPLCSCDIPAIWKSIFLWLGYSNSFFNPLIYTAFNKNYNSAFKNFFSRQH
Neuropeptide Y receptor type 2 (Homo sapiens), sequence (P49146 whole entry): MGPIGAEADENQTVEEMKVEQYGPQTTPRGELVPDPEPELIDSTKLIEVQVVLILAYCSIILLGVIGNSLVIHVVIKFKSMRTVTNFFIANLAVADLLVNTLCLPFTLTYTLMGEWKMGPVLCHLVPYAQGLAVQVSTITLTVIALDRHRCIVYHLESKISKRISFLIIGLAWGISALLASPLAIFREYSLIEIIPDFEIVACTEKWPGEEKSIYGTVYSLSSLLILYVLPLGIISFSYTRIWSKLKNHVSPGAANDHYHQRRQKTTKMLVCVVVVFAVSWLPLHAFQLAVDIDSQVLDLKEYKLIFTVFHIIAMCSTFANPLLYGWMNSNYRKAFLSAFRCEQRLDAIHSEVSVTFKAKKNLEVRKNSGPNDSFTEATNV
Histamine H2 receptor (Homo sapiens), sequence (P25021 whole entry): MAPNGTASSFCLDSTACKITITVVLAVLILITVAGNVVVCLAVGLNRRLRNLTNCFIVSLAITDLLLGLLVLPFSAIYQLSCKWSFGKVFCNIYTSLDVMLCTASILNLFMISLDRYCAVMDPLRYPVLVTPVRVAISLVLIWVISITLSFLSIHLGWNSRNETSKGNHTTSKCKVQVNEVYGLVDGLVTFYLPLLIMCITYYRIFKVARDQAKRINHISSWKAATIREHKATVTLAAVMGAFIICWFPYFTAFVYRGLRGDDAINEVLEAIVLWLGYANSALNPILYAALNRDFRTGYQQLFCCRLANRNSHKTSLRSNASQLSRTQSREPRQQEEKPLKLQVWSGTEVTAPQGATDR
Neuropeptide Y receptor type 1 (Homo sapiens), sequence (P25929 whole entry): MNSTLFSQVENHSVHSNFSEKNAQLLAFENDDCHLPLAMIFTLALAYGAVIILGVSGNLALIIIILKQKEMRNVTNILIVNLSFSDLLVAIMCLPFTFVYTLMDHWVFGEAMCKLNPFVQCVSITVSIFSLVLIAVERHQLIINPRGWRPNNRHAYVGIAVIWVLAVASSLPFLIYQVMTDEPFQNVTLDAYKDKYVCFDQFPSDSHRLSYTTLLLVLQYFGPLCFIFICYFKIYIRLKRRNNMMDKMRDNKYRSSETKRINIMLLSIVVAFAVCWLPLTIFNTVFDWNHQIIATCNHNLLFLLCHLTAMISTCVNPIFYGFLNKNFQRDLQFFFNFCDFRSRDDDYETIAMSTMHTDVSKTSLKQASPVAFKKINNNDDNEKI
Beta-3 adrenergic receptor (Homo sapiens), sequence (P13945 whole entry, looked up): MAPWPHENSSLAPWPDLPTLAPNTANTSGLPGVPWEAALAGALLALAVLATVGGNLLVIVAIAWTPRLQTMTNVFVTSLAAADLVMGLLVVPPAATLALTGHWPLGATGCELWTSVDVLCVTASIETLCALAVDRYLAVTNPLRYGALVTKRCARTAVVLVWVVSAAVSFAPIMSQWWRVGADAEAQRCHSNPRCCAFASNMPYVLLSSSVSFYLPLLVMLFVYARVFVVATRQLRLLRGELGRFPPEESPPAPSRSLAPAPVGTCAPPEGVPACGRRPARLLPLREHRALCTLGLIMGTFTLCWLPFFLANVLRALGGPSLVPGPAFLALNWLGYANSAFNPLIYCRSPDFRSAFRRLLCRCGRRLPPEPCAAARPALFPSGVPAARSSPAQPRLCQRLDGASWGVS
Sodium-dependent noradrenaline transporter (Homo sapiens), sequence (P23975 whole entry): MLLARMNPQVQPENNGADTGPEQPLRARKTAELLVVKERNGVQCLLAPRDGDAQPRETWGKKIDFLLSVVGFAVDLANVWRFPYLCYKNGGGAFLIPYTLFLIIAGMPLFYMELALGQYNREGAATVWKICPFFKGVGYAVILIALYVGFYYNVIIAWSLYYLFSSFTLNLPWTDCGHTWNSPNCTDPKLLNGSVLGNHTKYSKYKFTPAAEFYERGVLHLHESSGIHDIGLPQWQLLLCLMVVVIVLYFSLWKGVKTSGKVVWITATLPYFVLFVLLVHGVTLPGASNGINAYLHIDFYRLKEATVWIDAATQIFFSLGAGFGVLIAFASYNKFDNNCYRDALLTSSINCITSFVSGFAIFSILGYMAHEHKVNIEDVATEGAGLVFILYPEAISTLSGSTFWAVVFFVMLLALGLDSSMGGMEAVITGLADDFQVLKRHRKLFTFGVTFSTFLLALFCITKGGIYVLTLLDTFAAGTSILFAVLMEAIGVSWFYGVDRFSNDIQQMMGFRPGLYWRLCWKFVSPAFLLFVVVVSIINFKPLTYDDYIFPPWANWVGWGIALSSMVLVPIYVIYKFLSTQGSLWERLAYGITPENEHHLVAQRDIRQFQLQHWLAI
Sodium-dependent dopamine transporter (Homo sapiens), sequence (Q01959 whole entry): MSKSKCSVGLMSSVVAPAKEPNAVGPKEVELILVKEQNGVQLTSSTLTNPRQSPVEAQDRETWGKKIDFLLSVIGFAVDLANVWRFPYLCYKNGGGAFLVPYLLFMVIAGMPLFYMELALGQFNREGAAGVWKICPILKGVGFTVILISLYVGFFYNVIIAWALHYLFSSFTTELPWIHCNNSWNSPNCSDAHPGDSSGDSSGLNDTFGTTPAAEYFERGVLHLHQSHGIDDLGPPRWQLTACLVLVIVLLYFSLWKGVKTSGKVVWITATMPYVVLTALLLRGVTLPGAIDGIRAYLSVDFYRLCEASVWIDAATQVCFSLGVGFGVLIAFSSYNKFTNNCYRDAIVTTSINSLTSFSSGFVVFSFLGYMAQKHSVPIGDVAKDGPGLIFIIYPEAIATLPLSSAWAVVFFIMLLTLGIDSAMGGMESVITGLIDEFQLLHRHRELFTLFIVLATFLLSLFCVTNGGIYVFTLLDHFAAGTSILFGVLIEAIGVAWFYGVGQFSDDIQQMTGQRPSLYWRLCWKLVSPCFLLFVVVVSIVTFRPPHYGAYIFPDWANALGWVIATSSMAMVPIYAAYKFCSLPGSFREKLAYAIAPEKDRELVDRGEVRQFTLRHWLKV
Sodium-dependent serotonin transporter (Homo sapiens), sequence (P31645 whole entry, looked up): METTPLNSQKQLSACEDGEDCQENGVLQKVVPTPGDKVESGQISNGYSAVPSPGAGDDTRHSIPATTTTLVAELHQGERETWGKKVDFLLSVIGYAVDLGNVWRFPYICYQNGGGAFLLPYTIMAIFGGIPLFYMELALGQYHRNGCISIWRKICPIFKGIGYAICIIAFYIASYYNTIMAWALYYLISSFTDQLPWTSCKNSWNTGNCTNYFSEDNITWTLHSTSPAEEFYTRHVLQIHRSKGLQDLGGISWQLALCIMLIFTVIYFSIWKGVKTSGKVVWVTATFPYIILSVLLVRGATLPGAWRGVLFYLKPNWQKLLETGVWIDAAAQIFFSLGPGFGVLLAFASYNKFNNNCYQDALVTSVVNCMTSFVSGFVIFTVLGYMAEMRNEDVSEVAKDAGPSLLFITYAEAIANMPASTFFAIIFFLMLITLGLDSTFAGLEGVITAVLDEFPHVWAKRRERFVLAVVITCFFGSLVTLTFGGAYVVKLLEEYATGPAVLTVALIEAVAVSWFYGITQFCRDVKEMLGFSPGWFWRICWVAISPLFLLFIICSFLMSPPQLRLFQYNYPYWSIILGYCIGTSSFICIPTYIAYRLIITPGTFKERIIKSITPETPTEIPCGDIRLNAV
Acetylcholine receptor subunit alpha (Homo sapiens), sequence (P02708 whole entry): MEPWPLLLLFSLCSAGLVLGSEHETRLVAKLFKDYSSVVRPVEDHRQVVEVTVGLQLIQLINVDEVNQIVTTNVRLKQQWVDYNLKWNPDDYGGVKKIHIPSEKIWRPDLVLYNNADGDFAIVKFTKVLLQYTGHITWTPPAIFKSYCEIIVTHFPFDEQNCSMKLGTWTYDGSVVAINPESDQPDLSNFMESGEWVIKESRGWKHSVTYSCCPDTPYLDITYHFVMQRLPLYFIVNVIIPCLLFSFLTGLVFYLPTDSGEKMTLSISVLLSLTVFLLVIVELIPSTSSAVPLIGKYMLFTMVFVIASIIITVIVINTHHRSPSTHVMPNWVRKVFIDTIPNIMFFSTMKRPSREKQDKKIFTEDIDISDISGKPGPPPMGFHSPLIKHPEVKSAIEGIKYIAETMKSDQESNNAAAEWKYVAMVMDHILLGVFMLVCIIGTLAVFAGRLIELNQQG

| SMILES | inhibition (Mus musculus) [%] | inhibition [1] [%] | IC50 (Platelet [2]) [nM] | inhibition [3] [%] | inhibition [4] [%] | inhibition [5] [%] | inhibition [6] [%] | inhibition [7] [%] | inhibition [8] [%] | inhibition [9] [%] | inhibition [10] [%] | inhibition at 60 min, 10 µM [11] [%] | inhibition (Homo sapiens) [%] | inhibition [12] [%] | inhibition [13] [%] | % Inhibition of Control Agonist Response (Mean n=2) [14] [%] | % of Control Agonist Response (Mean n=2) [14] [%] | inhibition [15] [%] | inhibition [16] [%] | IC50 (Platelet [17]) |
| --- | --- | --- | --- | --- | --- | --- | --- | --- | --- | --- | --- | --- | --- | --- | --- | --- | --- | --- | --- | --- |
| O=C(N1CCS(=O)(=O)CC1)N1C[C@H](c2ccc(OC(F)(F)F)cc2)C[C@H](c2nc(C3CC3)no2)C1 [BAY-386] | 16 | 12 | 430 | -2 | 10 | 3 | 1 | -1.24 | 12 | 16 | 9.25 | 55 | -4 | 10 | 2 | – | – | – | – | – |
| Cc1noc([C@H]2C[C@@H](c3ccc(C(F)(F)F)cc3)CN(C(=O)N3CCS(=O)(=O)C3)C2)n1 [BAY-448] | – | – | – | – | – | – | – | – | – | – | – | – | – | – | – | 1.3 | 9 | 19.3 | 3.66 | > 10000 nM (not active) |
